Source: publication PMC8213057, “Targeting ALK2: An Open Science Approach to Developing Therapeutics for the Treatment of Diffuse Intrinsic Pontine Glioma” (Journal of Medicinal Chemistry, 2020)

What was measured:
[1] = biological target: MYO3A (Homo sapiens, UniProt Q8NEV4); assay: biochemical; conditions: read-out: % enzyme activity, 1 μM; Run 1, Run 2
[2] = biological target: T1, PLK4/SAK (Homo sapiens, UniProt O00444); assay: biochemical; conditions: read-out: % enzyme activity, 1 μM; Run 1, Run 2
T1 sequence (O00444 1-970): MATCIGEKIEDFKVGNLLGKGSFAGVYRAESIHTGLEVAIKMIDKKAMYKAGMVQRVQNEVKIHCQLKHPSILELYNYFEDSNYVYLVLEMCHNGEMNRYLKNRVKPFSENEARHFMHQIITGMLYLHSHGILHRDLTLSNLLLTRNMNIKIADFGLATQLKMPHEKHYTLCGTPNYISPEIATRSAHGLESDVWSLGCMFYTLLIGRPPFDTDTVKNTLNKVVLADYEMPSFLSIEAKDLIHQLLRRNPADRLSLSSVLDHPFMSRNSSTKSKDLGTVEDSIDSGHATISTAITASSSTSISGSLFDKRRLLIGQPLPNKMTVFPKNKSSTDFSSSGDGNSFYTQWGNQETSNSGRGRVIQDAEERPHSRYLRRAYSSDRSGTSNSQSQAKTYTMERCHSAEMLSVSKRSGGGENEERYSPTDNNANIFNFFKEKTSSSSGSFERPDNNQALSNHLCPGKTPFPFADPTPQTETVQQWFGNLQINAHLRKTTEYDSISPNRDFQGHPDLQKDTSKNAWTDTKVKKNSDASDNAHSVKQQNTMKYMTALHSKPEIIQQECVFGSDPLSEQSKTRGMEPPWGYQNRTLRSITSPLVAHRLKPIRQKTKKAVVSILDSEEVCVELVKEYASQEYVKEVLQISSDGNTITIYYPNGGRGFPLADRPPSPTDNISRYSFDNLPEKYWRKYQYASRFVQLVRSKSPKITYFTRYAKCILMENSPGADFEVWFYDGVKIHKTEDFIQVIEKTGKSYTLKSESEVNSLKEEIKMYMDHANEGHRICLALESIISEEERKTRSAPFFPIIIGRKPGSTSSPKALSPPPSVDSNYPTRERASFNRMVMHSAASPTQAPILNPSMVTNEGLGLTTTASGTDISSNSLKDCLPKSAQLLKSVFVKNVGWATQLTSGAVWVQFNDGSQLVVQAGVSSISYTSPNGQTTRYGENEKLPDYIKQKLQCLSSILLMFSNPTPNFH

[3] = biological target: T2, KHS/MAP4K5 (Homo sapiens, UniProt Q9Y4K4); assay: 375-member kinase panel; format: biochemical; conditions: Run 1, Run 2; for % enzyme activity: 1 μM; for remaining activity at 1 µM: read-out: % enzyme activity, 1 μM
T2 construct: purchased Reaction Biology Corporation

[4] = biological target: T3, NEK5 (Homo sapiens, UniProt Q6P3R8); conditions: 1 μM; Run 1, Run 2
T3 sequence (Q6P3R8 1-708): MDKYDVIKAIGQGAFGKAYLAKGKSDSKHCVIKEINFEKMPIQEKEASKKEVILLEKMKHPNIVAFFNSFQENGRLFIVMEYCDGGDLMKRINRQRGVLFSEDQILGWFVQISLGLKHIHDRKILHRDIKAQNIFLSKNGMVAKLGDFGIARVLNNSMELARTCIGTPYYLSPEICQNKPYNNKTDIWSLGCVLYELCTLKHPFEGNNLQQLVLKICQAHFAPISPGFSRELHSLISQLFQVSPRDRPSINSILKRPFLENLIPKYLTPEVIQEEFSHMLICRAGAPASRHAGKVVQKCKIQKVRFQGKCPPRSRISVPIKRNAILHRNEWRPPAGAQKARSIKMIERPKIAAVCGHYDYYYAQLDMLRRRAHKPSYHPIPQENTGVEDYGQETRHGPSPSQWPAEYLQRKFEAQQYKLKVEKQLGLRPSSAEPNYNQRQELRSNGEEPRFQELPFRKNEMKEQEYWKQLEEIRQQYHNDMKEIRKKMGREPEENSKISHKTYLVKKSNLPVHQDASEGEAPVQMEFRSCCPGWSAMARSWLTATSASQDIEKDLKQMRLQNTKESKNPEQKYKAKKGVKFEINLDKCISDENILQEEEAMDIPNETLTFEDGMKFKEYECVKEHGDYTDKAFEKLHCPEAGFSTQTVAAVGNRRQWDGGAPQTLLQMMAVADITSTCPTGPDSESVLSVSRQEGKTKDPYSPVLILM

[5] = biological target: T4, NEK2 (Homo sapiens, UniProt P51955); assay: biochemical; conditions: read-out: % enzyme activity, 1 μM; Run 1, Run 2
T4 sequence (P51955 1-445): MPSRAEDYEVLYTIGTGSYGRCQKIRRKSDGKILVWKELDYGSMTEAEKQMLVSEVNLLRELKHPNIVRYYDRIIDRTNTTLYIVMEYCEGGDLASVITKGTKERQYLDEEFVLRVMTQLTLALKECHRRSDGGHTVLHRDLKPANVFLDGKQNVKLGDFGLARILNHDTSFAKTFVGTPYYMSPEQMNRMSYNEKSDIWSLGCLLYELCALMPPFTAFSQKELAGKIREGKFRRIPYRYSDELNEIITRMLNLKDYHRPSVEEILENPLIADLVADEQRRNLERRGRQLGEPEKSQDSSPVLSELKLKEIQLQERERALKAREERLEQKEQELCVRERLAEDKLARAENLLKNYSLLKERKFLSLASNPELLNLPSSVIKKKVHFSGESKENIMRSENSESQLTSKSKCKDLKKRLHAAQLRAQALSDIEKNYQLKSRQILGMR

[6] = biological target: SIK1 (Homo sapiens, UniProt P57059); assay: biochemical; conditions: read-out: % enzyme activity, 1 μM; Run 1, Run 2
[7] = biological target: MEK2 (Homo sapiens, UniProt P36507); assay: biochemical; conditions: read-out: % enzyme activity, 1 μM; Run 1, Run 2
[8] = biological target: CYP2D6

T2 sequence (Q9Y4K4 whole entry): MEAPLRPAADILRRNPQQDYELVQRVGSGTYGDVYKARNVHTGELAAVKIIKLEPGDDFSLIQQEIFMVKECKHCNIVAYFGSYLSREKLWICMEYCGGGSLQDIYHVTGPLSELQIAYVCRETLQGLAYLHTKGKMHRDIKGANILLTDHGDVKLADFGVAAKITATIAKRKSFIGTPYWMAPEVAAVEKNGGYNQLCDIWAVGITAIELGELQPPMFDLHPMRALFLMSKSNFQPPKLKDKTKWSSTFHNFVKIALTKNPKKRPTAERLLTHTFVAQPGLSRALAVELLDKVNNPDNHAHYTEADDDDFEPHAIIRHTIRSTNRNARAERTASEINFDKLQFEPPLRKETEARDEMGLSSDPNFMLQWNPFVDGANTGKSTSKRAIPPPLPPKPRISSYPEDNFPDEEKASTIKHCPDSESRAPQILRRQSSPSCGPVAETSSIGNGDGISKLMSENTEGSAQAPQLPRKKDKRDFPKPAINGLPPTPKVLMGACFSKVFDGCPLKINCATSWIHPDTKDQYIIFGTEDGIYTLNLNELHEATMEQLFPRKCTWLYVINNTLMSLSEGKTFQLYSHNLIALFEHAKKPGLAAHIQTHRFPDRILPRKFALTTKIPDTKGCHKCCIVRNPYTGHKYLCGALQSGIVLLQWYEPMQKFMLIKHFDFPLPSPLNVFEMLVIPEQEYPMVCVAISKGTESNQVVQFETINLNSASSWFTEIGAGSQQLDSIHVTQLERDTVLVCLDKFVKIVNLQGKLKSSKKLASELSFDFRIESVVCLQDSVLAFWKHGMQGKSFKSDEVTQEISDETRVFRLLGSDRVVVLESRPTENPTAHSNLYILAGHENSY
Chain of SIK1 (P57059 whole entry): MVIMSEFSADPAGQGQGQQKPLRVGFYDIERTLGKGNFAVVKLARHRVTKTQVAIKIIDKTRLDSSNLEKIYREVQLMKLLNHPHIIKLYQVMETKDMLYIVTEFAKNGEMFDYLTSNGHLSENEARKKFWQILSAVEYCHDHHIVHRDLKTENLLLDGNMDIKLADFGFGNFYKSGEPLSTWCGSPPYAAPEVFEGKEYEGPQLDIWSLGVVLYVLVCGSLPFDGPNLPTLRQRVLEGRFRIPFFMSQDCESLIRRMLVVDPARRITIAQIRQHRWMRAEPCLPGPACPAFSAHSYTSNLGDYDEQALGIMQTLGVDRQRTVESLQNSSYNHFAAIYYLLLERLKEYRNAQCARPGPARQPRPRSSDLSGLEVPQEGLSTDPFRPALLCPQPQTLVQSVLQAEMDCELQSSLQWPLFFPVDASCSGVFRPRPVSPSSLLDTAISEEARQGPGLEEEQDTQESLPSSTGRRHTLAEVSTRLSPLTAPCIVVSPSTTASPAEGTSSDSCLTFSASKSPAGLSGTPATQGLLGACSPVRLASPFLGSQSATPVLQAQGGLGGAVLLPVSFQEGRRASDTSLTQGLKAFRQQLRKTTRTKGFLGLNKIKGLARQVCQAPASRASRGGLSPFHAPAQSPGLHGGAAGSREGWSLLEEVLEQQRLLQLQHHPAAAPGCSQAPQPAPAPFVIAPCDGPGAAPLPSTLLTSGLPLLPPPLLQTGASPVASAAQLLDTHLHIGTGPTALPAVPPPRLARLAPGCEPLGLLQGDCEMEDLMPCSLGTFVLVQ
Chain of MEK2 (P36507 whole entry): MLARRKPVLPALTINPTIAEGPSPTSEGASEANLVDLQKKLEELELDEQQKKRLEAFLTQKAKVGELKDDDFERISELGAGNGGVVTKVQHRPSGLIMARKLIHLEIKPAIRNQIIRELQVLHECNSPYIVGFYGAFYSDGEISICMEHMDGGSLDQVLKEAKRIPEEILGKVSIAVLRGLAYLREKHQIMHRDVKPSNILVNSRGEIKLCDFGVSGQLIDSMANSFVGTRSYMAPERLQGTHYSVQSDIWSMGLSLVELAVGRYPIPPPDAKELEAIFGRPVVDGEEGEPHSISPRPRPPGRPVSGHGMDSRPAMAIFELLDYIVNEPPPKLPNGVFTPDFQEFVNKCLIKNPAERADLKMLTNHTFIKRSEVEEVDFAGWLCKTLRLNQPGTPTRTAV
Chain of MYO3A (Q8NEV4 whole entry): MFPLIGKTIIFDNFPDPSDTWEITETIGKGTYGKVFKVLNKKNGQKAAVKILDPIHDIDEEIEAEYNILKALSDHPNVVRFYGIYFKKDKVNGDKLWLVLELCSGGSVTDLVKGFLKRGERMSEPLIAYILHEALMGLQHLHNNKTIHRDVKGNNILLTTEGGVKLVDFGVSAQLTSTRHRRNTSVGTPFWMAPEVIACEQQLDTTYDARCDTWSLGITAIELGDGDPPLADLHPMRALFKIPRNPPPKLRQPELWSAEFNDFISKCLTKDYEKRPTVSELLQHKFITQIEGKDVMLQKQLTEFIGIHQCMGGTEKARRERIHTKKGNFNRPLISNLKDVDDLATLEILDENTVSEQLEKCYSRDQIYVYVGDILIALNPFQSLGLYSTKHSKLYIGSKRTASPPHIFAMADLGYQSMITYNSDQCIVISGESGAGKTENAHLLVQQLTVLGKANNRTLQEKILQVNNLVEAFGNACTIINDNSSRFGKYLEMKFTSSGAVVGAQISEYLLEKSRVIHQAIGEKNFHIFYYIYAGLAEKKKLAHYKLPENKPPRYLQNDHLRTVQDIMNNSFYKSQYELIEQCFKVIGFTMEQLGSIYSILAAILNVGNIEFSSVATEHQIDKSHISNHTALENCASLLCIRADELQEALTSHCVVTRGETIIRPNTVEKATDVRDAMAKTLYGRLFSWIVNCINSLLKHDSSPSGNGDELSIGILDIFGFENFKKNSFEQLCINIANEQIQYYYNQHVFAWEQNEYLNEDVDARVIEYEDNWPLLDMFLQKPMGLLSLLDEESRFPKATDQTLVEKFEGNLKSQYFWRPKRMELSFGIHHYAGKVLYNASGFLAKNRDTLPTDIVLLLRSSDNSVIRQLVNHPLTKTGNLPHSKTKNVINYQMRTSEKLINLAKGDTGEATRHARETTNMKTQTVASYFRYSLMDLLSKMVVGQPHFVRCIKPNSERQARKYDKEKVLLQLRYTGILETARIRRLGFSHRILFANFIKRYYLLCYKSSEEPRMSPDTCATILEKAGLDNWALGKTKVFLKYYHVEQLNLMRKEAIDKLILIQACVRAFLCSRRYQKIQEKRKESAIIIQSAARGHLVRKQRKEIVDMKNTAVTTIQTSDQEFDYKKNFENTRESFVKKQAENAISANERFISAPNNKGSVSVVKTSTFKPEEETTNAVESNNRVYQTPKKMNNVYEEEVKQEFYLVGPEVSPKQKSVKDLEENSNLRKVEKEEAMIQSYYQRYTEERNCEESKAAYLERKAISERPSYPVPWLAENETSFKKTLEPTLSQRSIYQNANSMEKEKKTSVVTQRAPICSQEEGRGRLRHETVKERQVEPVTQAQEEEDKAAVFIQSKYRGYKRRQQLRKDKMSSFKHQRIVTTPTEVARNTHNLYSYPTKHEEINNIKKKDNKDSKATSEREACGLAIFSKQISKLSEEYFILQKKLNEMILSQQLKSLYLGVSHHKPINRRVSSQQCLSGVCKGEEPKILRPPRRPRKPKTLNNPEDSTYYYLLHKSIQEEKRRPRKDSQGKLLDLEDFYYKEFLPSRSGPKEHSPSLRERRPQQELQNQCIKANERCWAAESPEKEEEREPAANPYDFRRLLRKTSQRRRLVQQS

Compound | remaining activity at 1 µM [1] | remaining activity at 1 µM [2] | % enzyme activity [3] | remaining activity at 1 µM [3] | % enzyme activity [4] | remaining activity at 1 µM [5] | remaining activity at 1 µM [6] | remaining activity at 1 µM [7] | CYP inhibition [8]
COc1cc(-c2cncc(-c3ccc(N4CCN(C)CC4)cc3)c2C)cc(F)c1C(N)=O [Compound 26a, 2-Fluoro-6-methoxy-4-(4-methyl-5-(4-(4-methylpiperazin-1-yl)phenyl)pyridin-3-yl)benzamide] | 84% | 94.1% | 39.28% | 39.7% | 97.51% | 92.3% | 82.9% | 87.1% | > 50 µM
COc1cc(-c2cncc(-c3ccc(N4C[C@@H](C)N(C)[C@@H](C)C4)cc3)c2C)cc(F)c1C(N)=O [Compound 26c, 2-Fluoro-6-methoxy-4-(4-methyl-5-(4-((3R,5S)-3,4,5-trimethylpiperazin-1-yl)phenyl)pyridin-3-yl)benzamide] | 94.7% | 98.8% | 40.60% | 41.7% | 93.10% | 98.5% | 93.8% | 94% | > 50 µM
